Reference: patent publication US8637468B2, “Synthetic cholesterylamine-linker derivatives for agent delivery into cells” (The University of Kansas, priority 2009, dated 2014)
Where two headings read alike, the source gives them in different places.

How the values were obtained:
[1] = system: Jurkat lymphocytes; assay: Confocal laser scanning microscopy of living Jurkat lymphocytes treated with fluorescent probes; assay type: cell-based, human; conditions: 2 μM, 10% serum
Procedure: FIG. 3 includes micrographs showing differential interference contrast (DIC) and confocal laser scanning microscopy of living Jurkat lymphocytes in media containing 10% serum treated at 37° C. with fluorescent compound 4 (Panels A-E), compound 6 (F-G), and compound 12 (H-I) for 5 min or 1 h (2 μM). In C and D, ezetimibe (compound 3, 100 μM in 0.1% DMSO) and cholesterol (compound 1, 200 μM in 10% DMSO) were included as competitors to block uptake via cell surface receptors.
An inverted Leica TCS SPE confocal laser-scanning microscope fitted with a Leica 63× oil-immersion objective was employed for imaging. Fluorescent probes were excited with a 488 nm solid-state laser and emitted photons were collected from 495-600 nm. Propidium iodide, used to counterstain dead cells red fluorescent, was excited with a 532 nm solid-state laser and emitted photons were collected from 650-800 nm. To image living cells, 50 μL of cells in media was pipetted to form a small droplet in the center of a coverslip fitted with a press-to-seal silicone isolator (Invitrogen). A microscope slide was added to the top of the coverslip to create a column of media containing living cells. To allow accurate comparisons of differences in cellular fluorescence, laser power and PMT gain settings were identical for all samples.
Cells were suspended at 300,000 cells/mL in RPMI media containing 10% FBS. Ezetimibe (100 μM; diluted 1:1000 into media from a 100 mM stock in DMSO; 0.1% final DMSO concentration), free cholesterol (200 μM; diluted 1:10 into media from a 2 mM stock in DMSO; 10% final DMSO concentration to enhance cholesterol solubility) or vehicle control (DMSO) was added in competition experiments. Cell suspensions containing the competitor or vehicle control were prepared as 1 mL aliquots in 1.5 mL eppindorf tubes. Fluorescent probes were added at concentrations from 0 nM to 2500 nM (diluted 1:1000 into media from stocks in DMSO). […] Samples were immediately analyzed by flow cytometry or confocal laser-scanning microscopy.

[2] = system: plasma membranes of living Jurkat lymphocytes; assay: Saturation binding of fluorescent probes to living Jurkat lymphocytes (flow cytometry); design: species or system human; conditions: for Bmax (×10^5, 16° C.) / Kd / Bmax (×10^5, 37° C.): media containing 10% FBS, free cholesterol (200 μM, 10% DMSO) as competitor; for binding to mammalian cells (affinity/efficacy, in words): high concentrations of serum (10%)
Procedure: Jurkat lymphocytes (human acute leukemia, ATCC #TIB-152) were cultivated in Roswell Park Memorial Institute (RPMI) 1640 medium supplemented with Fetal Bovine Serum (FBS, 10%), penicillin (100 units/mL), and streptomycin (100 μg/mL) in a humidified 5% CO2 incubator at 37° C. Media used for cell culture and all wash steps contained antibiotics and 10% FBS unless otherwise noted.
Cells were suspended at 300,000 cells/mL in RPMI media containing 10% FBS. Ezetimibe (100 μM; diluted 1:1000 into media from a 100 mM stock in DMSO; 0.1% final DMSO concentration), free cholesterol (200 μM; diluted 1:10 into media from a 2 mM stock in DMSO; 10% final DMSO concentration to enhance cholesterol solubility) or vehicle control (DMSO) was added in competition experiments. Cell suspensions containing the competitor or vehicle control were prepared as 1 mL aliquots in 1.5 mL eppindorf tubes. Fluorescent probes were added at concentrations from 0 nM to 2500 nM (diluted 1:1000 into media from stocks in DMSO). Once the probe was added and well mixed, the samples were split into three tubes each containing 330 μL. Cells were incubated at 16° C. for 10 min or 37° C. for 5 minutes to limit endocytosis. After this incubation, the samples were washed once with RPMI 1640 containing 0.5% FBS (to minimize efflux of the probe from the cell surface) and propidium iodide (3 μM). Samples were immediately analyzed by flow cytometry or confocal laser-scanning microscopy.
Populations of 10,000 Jurkat cells were analyzed for each sample using an Accuri C6 flow cytometer equipped with 488 nm and 640 nm solid-state lasers. Live cells were gated using both forward scattering (FSC) and side scattering (SSC) dot plots to identify cellular physical properties of size and granularity and propidium iodide to identify cells with compromised membranes. The average cellular fluorescence upon excitation at 488 nm was plotted against probe concentration, and the data analyzed as total binding (no competitor added) and a linear non-specific binding component (with cholesterol or ezetimibe as a specific competitor) to calculate specific binding curves. Using GraphPad Prism 5.0 software, these curves were analyzed with a one site with hill slope binding model to determine the relative apparent Kd and Bmax values listed in Table 1 below.
Using free cholesterol (compound 1, 200 μM, 10% DMSO) as a competitor, we quantified the relative affinities (Kd, app) and efficacies (Bmax) of compounds 4-12 in saturation binding experiments at both 16° C. (to limit endocytosis) and 37° C. (FIG. 4 and Table 1). These experiments confirmed the combined importance the N-alkyl substituent of cholesterylamine, an anionic functional group, and a spacer residue such as β-alanine to engender high affinity binding to cell surfaces and facilitate subsequent endocytosis.

[3] = 16° C., 10 min, read-out: Kd, app (nM, 16° C.)
[4] = 37° C., 5 min, read-out: Kd, app (nM, 37° C.)

Compound | fluorescent staining of cells ([1]; 5 minutes at 37° C.) | cellular binding, uptake and localization ([1]; after 1 hour, 37° C.) | Bmax (×10^5, 16° C.) ([2]; 16° C., 10 min) | Kd [2, 3] | Bmax (×10^5, 37° C.) ([2]; 37° C., 5 min) | Kd [2, 4] | binding to mammalian cells (affinity/efficacy, in words) [2] | melting point | cellular binding and cellular uptake compared with compound 4 ([1]; 5 min or 1 h, 37° C.)
Cc1cc(C(=O)N[C@@H](CCC(=O)O)C(=O)NCCC(=O)NCCCN[C@H]2CC[C@@]3(C)C(=CC[C@H]4[C@@H]5CC[C@H]([C@H](C)CCCC(C)C)[C@@]5(C)CC[C@@H]43)C2)ccc1-c1c2cc(F)c(=O)cc-2oc2cc(O)c(F)cc12 [compound 4, (4S)-5-{[3-({3-[3β-Cholest-5-en-3-ylamino]propyl}amino)-3-oxopropyl]amino}-4-{[4-(2,7-difluoro-6-hydroxy-3-oxo-3H-xanthen-9-yl)-3-methylbenzoyl]amino}-5-oxopentanoic acid] | robust fluorescent staining of cellular plasma membranes | enhanced cellular binding, uptake of the probe, and localization of compound 4 in transferrin-positive early/recycling endosomes | 2.31 ± 0.14 ×10^5 | 403 ± 49 nM | 2.54 ± 0.12 ×10^5 | 344 ± 32 nM | high affinity/efficacy |  | 
Cc1cc(C(=O)N[C@@H](CCC(=O)O)C(=O)N[C@@H](CCC(=O)O)C(=O)NCCC(=O)NCCCN[C@H]2CC[C@@]3(C)C(=CC[C@H]4[C@@H]5CC[C@H]([C@H](C)CCCC(C)C)[C@@]5(C)CC[C@@H]43)C2)ccc1-c1c2cc(F)c(=O)cc-2oc2cc(O)c(F)cc12 [compound 5, (4S)-5-{[(1S)-3-Carboxy-1-({[3-({3-[3β-cholest-5-en-3-ylamino]propyl}amino)-3-oxopropyl]amino}carbonyl)propyl]amino}-4-{[4-(2,7-difluoro-6-hydroxy-3-oxo-3H-xanthen-9-yl)-3-methylbenzoyl]amino}-5-oxopentanoic acid] |  |  | 3.93 ± 0.64 ×10^5 | 767 ± 244 nM | 3.01 ± 0.26 ×10^5 | 449 ± 74 nM | high affinity/efficacy |  | 
Cc1cc(C(=O)NCC(=O)NCCC(=O)NCCCN[C@H]2CC[C@@]3(C)C(=CC[C@H]4[C@@H]5CC[C@H]([C@H](C)CCCC(C)C)[C@@]5(C)CC[C@@H]43)C2)ccc1-c1c2cc(F)c(=O)cc-2oc2cc(O)c(F)cc12 [compound 6, N-(2-{[3-({3-[3β-Cholest-5-en-3-ylamino]propyl}amino)-3-oxopropyl]amino}-2-oxoethyl)-4-(2,7-difluoro-6-hydroxy-3-oxo-3H-xanthen-9-yl)-3-methylbenzamide] |  |  |  |  | NC^b (Not calculated due to low efficacy (Bmax<0.4×105)) |  |  | 200 to 203 °C | 
Cc1cc(C(=O)N[C@@H](CCC(=O)O)C(=O)N[C@@H](CCC(=O)O)C(=O)NCCCN[C@H]2CC[C@@]3(C)C(=CC[C@H]4[C@@H]5CC[C@H]([C@H](C)CCCC(C)C)[C@@]5(C)CC[C@@H]43)C2)ccc1-c1c2cc(F)c(=O)cc-2oc2cc(O)c(F)cc12 [compound 7, (4S)-5-(((2S)-4-carboxy-1-((3-[3β-cholest-5-en-3-ylamino]propyl)amino)-1-oxobutan-2-yl)amino)-4-(4-(2,7-difluoro-6-hydroxy-3-oxo-3H-xanthen-9-yl)-3-methylbenzamido)-5-oxopentanoic acid] |  |  |  |  | 3.2 ± 1.3 ×10^5 | 1540 ± 1140 nM |  | 175 to 178 °C | 
CC[C@H](CC[C@@H](C)[C@H]1CC[C@H]2[C@@H]3CC=C4C[C@@H](NCCCNC(=O)CCNC(=O)[C@H](CCC(=O)O)NC(=O)c5ccc(-c6c7cc(F)c(=O)cc-7oc7cc(O)c(F)cc67)c(C)c5)CC[C@]4(C)[C@H]3CC[C@]12C)C(C)C [compound 8, (4S)-5-{[3-({3-[3β-Sitost-5-en-3-ylamino]propyl}amino)-3-oxopropyl]amino}-4-{[4-(2,7-difluoro-6-hydroxy-3-oxo-3H-xanthen-9-yl)-3-methylbenzoyl]amino}-5-oxopentanoic acid] |  |  | 0.73 ± 0.03 ×10^5 | 286 ± 27 nM | 1.3 ± 0.29 ×10^5 | 435 ± 221 nM |  |  | 
Cc1cc(C(=O)N[C@@H](CCC(=O)O)C(=O)NCCC(=O)NCCCO[C@H]2CC[C@@]3(C)C(=CC[C@H]4[C@@H]5CC[C@H]([C@H](C)CCCC(C)C)[C@@]5(C)CC[C@@H]43)C2)ccc1-c1c2cc(F)c(=O)cc-2oc2cc(O)c(F)cc12 [compound 9, (4S)-5-{[3-({3-[3β-Cholest-5-en-3-yloxy]propyl}amino)-3-oxopropyl]amino}-4-{[4-(2,7-difluoro-6-hydroxy-3-oxo-3H-xanthen-9-yl)-3-methylbenzoyl]amino}-5-oxopentanoic acid] |  |  | 1.68 ± 0.26 ×10^5 | 954 ± 285 nM |  |  |  | 192 to 194 °C | 
Cc1cc(C(=O)N[C@@H](CCC(=O)O)C(=O)NCCC(=O)NCCC(=O)N[C@H]2CC[C@@]3(C)C(=CC[C@H]4[C@@H]5CC[C@H]([C@H](C)CCCC(C)C)[C@@]5(C)CC[C@@H]43)C2)ccc1-c1c2cc(F)c(=O)cc-2oc2cc(O)c(F)cc12 [compound 10, (4S)-4-(4-(2,7-difluoro-6-hydroxy-3-oxo-3H-xanthen-9-yl)-3-methylbenzamido)-5-((3-((3-{[3β-cholest-5-en-3-yl]amino}-3-oxopropyl)amino)-3-oxopropyl)amino)-5-oxopentanoic acid] |  |  | 1.86 ± 0.39 ×10^5 | 786 ± 358 nM | 2.2 ± 0.30 ×10^5 | 639 ± 190 nM |  | 192 to 194 °C | 
Cc1cc(C(=O)N[C@@H](CCC(=O)O)C(=O)NCCC(=O)NCCC(=O)OC2CC[C@@]3(C)C(=CC[C@H]4[C@@H]5CC[C@H]([C@H](C)CCCC(C)C)[C@@]5(C)CC[C@@H]43)C2)ccc1-c1c2cc(F)c(=O)cc-2oc2cc(O)c(F)cc12 (stereo partly drawn) [compound 11, (4S)-4-(4-(2,7-difluoro-6-hydroxy-3-oxo-3H-xanthen-9-yl)-3-methylbenzamido)-5-((3-((3-{[3-cholester-3-yl]oxy}3-oxopropyl)amino)-3-oxopropyl)amino)-5-oxopentanoic acid] |  |  | NC^b (Not calculated due to low efficacy (Bmax<0.4×105)) |  | NC^b (Not calculated due to low efficacy (Bmax<0.4×105)) |  |  |  | 
Cc1cc(C(=O)N[C@@H](CCC(=O)O)C(=O)NCC(=O)NCCNC(=O)OC2CC[C@@]3(C)C(=CC[C@H]4[C@@H]5CC[C@H]([C@H](C)CCCC(C)C)[C@@]5(C)CC[C@@H]43)C2)ccc1-c1c2cc(F)c(=O)cc-2oc2cc(O)c(F)cc12 (stereo partly drawn) [compound 12, (4S)-4-(4-(2,7-difluoro-6-hydroxy-3-oxo-3H-xanthen-9-yl)-3-methylbenzamido)-5-(3-((3-((({[3-cholester-3-y]oxy}carbonyl)amino)ethyl)amino)-2-oxoethyl)amino)-5-oxopentanoic acid] |  |  | NC^b (Not calculated due to low efficacy (Bmax<0.4×105)) |  | NC^b (Not calculated due to low efficacy (Bmax<0.4×105)) |  |  |  | substantially lower cellular binding and cellular uptake compared with compound 4
